Test results as given in the supplement of paper PMC10307832.

Assays:
Assay in all cases: relative viability (nuclei count vs DMSO), 5 days (fraction); higher = more cells survive
SGI-1776 + Tozasertib = compound: CN1CCC(CNc2ccc3ncc(-c4cccc(OC(F)(F)F)c4)n3n2)CC1 [SGI-1776] + Cc1cc(Nc2cc(N3CCN(C)CC3)nc(Sc3ccc(NC(=O)C4CC4)cc3)n2)n[nH]1 [Tozasertib] (partner 0.1 µM)
Summary of the method: (§1)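 One day after seeding in 1536-well plates, lung cancer cell lines were dosed by pin tool. Dosing was either single-drug or a fixed anchor-drug dose plus five library-drug doses (not always all listed) in √10 steps. After 5 days, nuclei were stained in one fix-and-stain step and counted on 4× images, and relative viability is the nuclei count of treated wells over that of vehicle wells, given as the median of duplicate plates.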

Entinostat + AZD7762 = compound: Nc1ccccc1NC(=O)c1ccc(CNC(=O)OCc2cccnc2)cc1 [Entinostat] + NC(=O)Nc1cc(-c2cccc(F)c2)sc1C(=O)N[C@H]1CCCNC1 [AZD7762] (partner 0.2 µM)
Summary of the method: as §1

Entinostat + Navitoclax = compound: Nc1ccccc1NC(=O)c1ccc(CNC(=O)OCc2cccnc2)cc1 [Entinostat] + CC1(C)CCC(c2ccc(Cl)cc2)=C(CN2CCN(c3ccc(C(=O)NS(=O)(=O)c4ccc(N[C@H](CCN5CCOCC5)CSc5ccccc5)c(S(=O)(=O)C(F)(F)F)c4)cc3)CC2)C1 [Navitoclax] (partner 0.5 µM)
Summary of the method: as §1

[1] = compound: C1COCCN1C2=NC(=NC3=C2OC4=C3C=CC=N4)C5=CC(=CC=C5)NC(=O)C6=CN=C(C=C6)N + CC(=O)c1c(C)c2cnc(Nc3ccc(N4CCNCC4)cn3)nc2n(C2CCCC2)c1=O [Palbociclib] (partner 0.5 µM)
Summary of the method: as §1

EPLC-272H
relative viability (SGI-1776 + Tozasertib; first compound 0.08 µM): 0.326 | relative viability (SGI-1776 + Tozasertib; first compound 0.8 µM): 0.194 | relative viability (SGI-1776 + Tozasertib; first compound 2.53 µM): 0.194 | relative viability (SGI-1776 + Tozasertib; first compound 8 µM): 0.175 | relative viability (Entinostat + AZD7762; first compound 0.02 µM): 0.339 | relative viability (Entinostat + AZD7762; first compound 0.06325 µM): 0.224 | relative viability (Entinostat + AZD7762; first compound 0.2 µM): 0.141 | relative viability (Entinostat + AZD7762; first compound 0.6325 µM): 0.137 | relative viability (Entinostat + AZD7762; first compound 2 µM): 0.14 | relative viability (Entinostat + Navitoclax; first compound 0.02 µM): 1.12 | relative viability (Entinostat + Navitoclax; first compound 0.06325 µM): 0.956 | relative viability (Entinostat + Navitoclax; first compound 0.2 µM): 0.979 | relative viability (Entinostat + Navitoclax; first compound 0.6325 µM): 0.424 | relative viability (Entinostat + Navitoclax; first compound 2 µM): 0.365 | relative viability ([1]; first compound 0.02 µM): 0.313 | relative viability ([1]; first compound 0.2 µM): 0.313 | relative viability ([1]; first compound 0.6325 µM): 0.37 | relative viability ([1]; first compound 2 µM): 0.329

H3255
relative viability (SGI-1776 + Tozasertib; first compound 0.08 µM): 0.574 | relative viability (SGI-1776 + Tozasertib; first compound 0.8 µM): 0.825 | relative viability (SGI-1776 + Tozasertib; first compound 2.53 µM): 0.625 | relative viability (SGI-1776 + Tozasertib; first compound 8 µM): 0.277 | relative viability (Entinostat + AZD7762; first compound 0.02 µM): 1 | relative viability (Entinostat + AZD7762; first compound 0.06325 µM): 0.901 | relative viability (Entinostat + AZD7762; first compound 0.2 µM): 0.756 | relative viability (Entinostat + AZD7762; first compound 0.6325 µM): 0.539 | relative viability (Entinostat + AZD7762; first compound 2 µM): 0.333 | relative viability (Entinostat + Navitoclax; first compound 0.02 µM): 0.536 | relative viability (Entinostat + Navitoclax; first compound 0.06325 µM): 0.453 | relative viability (Entinostat + Navitoclax; first compound 0.2 µM): 0.309 | relative viability (Entinostat + Navitoclax; first compound 0.6325 µM): 0.174 | relative viability (Entinostat + Navitoclax; first compound 2 µM): 0.121 | relative viability ([1]; first compound 0.02 µM): 0.308 | relative viability ([1]; first compound 0.06325 µM): 0.308 | relative viability ([1]; first compound 0.2 µM): 0.306 | relative viability ([1]; first compound 0.6325 µM): 0.308 | relative viability ([1]; first compound 2 µM): 0.305

HARA
relative viability (SGI-1776 + Tozasertib; first compound 0.08 µM): 0.18 | relative viability (SGI-1776 + Tozasertib; first compound 0.8 µM): 0.101 | relative viability (SGI-1776 + Tozasertib; first compound 2.53 µM): 0.0992 | relative viability (SGI-1776 + Tozasertib; first compound 8 µM): 0.0856 | relative viability (Entinostat + AZD7762; first compound 0.02 µM): 0.37 | relative viability (Entinostat + AZD7762; first compound 0.06325 µM): 0.229 | relative viability (Entinostat + AZD7762; first compound 0.2 µM): 0.34 | relative viability (Entinostat + AZD7762; first compound 0.6325 µM): 0.215 | relative viability (Entinostat + AZD7762; first compound 2 µM): 0.244 | relative viability (Entinostat + Navitoclax; first compound 0.02 µM): 1.18 | relative viability (Entinostat + Navitoclax; first compound 0.06325 µM): 1.14 | relative viability (Entinostat + Navitoclax; first compound 0.2 µM): 1.12 | relative viability (Entinostat + Navitoclax; first compound 0.6325 µM): 1.09 | relative viability (Entinostat + Navitoclax; first compound 2 µM): 0.935 | relative viability ([1]; first compound 0.02 µM): 0.207 | relative viability ([1]; first compound 0.06325 µM): 0.242 | relative viability ([1]; first compound 0.2 µM): 0.246 | relative viability ([1]; first compound 2 µM): 0.263

IA-LM
relative viability (Entinostat + Navitoclax; first compound 0.02 µM): 0.802 | relative viability (Entinostat + Navitoclax; first compound 0.06325 µM): 0.861 | relative viability (Entinostat + Navitoclax; first compound 0.2 µM): 0.898 | relative viability (Entinostat + Navitoclax; first compound 0.6325 µM): 0.685 | relative viability (Entinostat + Navitoclax; first compound 2 µM): 0.378

LCLC-103H
relative viability (SGI-1776 + Tozasertib; first compound 0.08 µM): 0.495 | relative viability (SGI-1776 + Tozasertib; first compound 0.8 µM): 0.506 | relative viability (SGI-1776 + Tozasertib; first compound 2.53 µM): 0.424 | relative viability (SGI-1776 + Tozasertib; first compound 8 µM): 0.211 | relative viability (Entinostat + AZD7762; first compound 0.02 µM): 0.818 | relative viability (Entinostat + AZD7762; first compound 0.06325 µM): 0.866 | relative viability (Entinostat + AZD7762; first compound 0.2 µM): 0.719 | relative viability (Entinostat + AZD7762; first compound 0.6325 µM): 0.474 | relative viability (Entinostat + AZD7762; first compound 2 µM): 0.432 | relative viability ([1]; first compound 0.02 µM): 0.498 | relative viability ([1]; first compound 0.06325 µM): 0.453 | relative viability ([1]; first compound 0.2 µM): 0.546 | relative viability ([1]; first compound 0.6325 µM): 0.467 | relative viability ([1]; first compound 2 µM): 0.403
